Read-outs that look alike come from different tables or passages of the source. Values belong to the molecule of their own block, whether it stands above or below them.
How the values were obtained:
[1] = tested on: parental CHO cell line without any transfected receptors; experiment: Forskolin‐stimulated cAMP accumulation, parent CHO cells without transfected receptors; type: cell-based, Chinese hamster; conditions: CHO cells without transfected receptors; in presence of forskolin
[2] = tested on: parental CHO cell line without any transfected receptors; experiment: ERK1/2‐phosphorylation, parent CHO cells without transfected receptors; type: cell-based, Chinese hamster; conditions: for ERK1/2-phosphorylation % PDBu / ERK1/2-phosphorylation Log EC50: CHO cells without transfected receptors, mean ± s.e.m.; for ERK1/2-phosphorylation % PDBu: maximal response as % of PDBu (10μM) response
[3] = molecular target: T1, human α1D‐adrenoceptor (full length) (Homo sapiens, UniProt P25100); experiment: ERK1/2‐phosphorylation (Surefire Alphascreen), CHO‐α1D cells; type: cell-based; conditions: for ERK1/2‐phosphorylation Log EC50: log values given negative
T1 construct: human α1D‐adrenoceptor (full length) were used; expressed in transfected cells; host or cells: CHO-K1
T1 sequence (P25100 1-572): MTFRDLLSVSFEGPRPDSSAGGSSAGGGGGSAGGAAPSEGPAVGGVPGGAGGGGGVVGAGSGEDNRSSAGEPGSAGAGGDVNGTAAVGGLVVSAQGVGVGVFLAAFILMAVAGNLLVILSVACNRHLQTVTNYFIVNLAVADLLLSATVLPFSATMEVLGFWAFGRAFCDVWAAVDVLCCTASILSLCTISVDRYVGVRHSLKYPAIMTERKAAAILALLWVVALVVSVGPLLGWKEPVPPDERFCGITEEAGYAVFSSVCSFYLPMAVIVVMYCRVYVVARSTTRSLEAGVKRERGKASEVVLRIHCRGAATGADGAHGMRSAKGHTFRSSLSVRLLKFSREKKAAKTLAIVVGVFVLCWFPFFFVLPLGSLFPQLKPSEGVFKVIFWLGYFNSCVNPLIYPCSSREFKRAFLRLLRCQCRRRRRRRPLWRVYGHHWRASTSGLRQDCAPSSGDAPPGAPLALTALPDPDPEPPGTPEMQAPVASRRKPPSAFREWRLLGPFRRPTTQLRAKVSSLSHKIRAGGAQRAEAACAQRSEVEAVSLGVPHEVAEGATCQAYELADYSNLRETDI

[4] = molecular target: T1, human α1D‐adrenoceptor (full length); experiment: ^3H‐prazosin whole‐cell radioligand binding, CHO‐α1D cells; conditions: for Kd: CHO‐α1D cells
[5] = molecular target: T2, human α1B‐adrenoceptor (Homo sapiens, UniProt P35368); experiment: ^3H‐prazosin whole‐cell radioligand binding, CHO‐α1B cells; conditions: CHO‐α1B cells; for IC50: printed as IC50> log value
T2 construct: expressed in transfected cells; host or cells: CHO-K1
T2 sequence (P35368 1-520): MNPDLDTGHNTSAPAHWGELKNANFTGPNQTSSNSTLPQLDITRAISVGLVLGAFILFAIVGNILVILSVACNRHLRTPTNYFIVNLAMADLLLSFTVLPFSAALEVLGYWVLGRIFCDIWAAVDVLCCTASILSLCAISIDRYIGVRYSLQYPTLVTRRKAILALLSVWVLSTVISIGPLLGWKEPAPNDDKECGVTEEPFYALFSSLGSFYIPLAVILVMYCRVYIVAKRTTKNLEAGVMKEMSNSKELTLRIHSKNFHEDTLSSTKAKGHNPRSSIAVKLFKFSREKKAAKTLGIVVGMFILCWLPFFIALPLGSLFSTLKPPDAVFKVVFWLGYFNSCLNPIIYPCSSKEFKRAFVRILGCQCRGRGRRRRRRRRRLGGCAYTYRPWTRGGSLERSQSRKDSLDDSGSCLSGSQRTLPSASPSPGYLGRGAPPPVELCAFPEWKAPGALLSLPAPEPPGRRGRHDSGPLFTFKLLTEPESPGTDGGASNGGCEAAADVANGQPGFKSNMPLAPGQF

[6] = molecular target: T1, human α1D‐adrenoceptor (full length); experiment: Intracellular free calcium mobilization, CHO‐α1D cells; type: cell-based
[7] = molecular target: T3, human α1A‐adrenoceptor (Homo sapiens, UniProt P35348); experiment: ^3H‐prazosin whole‐cell radioligand binding, CHO‐α1A cells
T3 construct: expressed in transfected cells; host or cells: CHO-K1
T3 sequence (P35348 1-466): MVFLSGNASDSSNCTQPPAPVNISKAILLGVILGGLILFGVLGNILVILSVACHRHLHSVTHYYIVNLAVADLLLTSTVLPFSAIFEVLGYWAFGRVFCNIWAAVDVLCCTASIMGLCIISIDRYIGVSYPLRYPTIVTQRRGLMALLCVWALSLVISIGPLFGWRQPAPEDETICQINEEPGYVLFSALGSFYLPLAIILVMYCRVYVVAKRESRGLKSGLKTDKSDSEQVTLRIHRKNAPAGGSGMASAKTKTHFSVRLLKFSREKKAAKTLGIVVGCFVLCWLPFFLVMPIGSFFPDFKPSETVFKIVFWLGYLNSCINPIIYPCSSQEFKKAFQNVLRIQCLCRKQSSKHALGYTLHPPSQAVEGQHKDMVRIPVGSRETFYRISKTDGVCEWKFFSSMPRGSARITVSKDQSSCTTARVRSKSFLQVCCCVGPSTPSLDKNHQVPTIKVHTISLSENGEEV

[8] = molecular target: T2, human α1B‐adrenoceptor; experiment: ERK1/2‐phosphorylation (Surefire Alphascreen), CHO‐α1B cells; type: cell-based; conditions: CHO‐α1B cells
[9] = molecular target: T3, human α1A‐adrenoceptor; experiment: Intracellular free calcium mobilization, CHO‐α1A cells; type: cell-based; conditions: CHO‐α1A cells
[10] = molecular target: T3, human α1A‐adrenoceptor; experiment: ERK1/2‐phosphorylation (Surefire Alphascreen), CHO‐α1A cells; type: cell-based; conditions: CHO‐α1A cells, no EC50 obtained
[11] = molecular target: T2, human α1B‐adrenoceptor; experiment: Intracellular free calcium mobilization, CHO‐α1B cells; type: cell-based; conditions: CHO‐α1B cells
[12] = 3H‐prazosin binding Log KD, whole‐cell binding (from Table 1), log values given negative
[13] = CHO‐α1D cells, response at 100 µM ligand (no EC50 given)
[14] = given as log KD (negative), mean ± SEM, 'early plateau' = specific binding not fully inhibited

Structure (SMILES): Nc1cc(Cl)c(N=C2NCCN2)c(Cl)c1 [Para-amino-clonidine]
cAMP accumulation (in presence of forskolin) Log EC50 [1]: No response
ERK1/2-phosphorylation % PDBu [2]: No response

Structure (SMILES): c1ccc2c(c1)CCCC2C1=NCCN1 (centres unmarked) [Tetrahydrozoline]
ERK1/2‐phosphorylation Log EC50 ([3]; CHO‐α1D cells): No response
ERK1/2‐phosphorylation % PDBu ([3]; CHO‐α1D cells, maximal response as % of PDBu): No response
cAMP accumulation (in presence of forskolin) Log EC50 [1]: No response
ERK1/2-phosphorylation % PDBu [2]: No response
ERK1/2-phosphorylation Log EC50 [2]: No response
Kd [4, 12]: 4.57 µM
Kd ([4]; Log KD α1D, ^3H‐prazosin whole cell binding, given as log KD (negative), mean ± SEM, 'early plateau' = specific binding not fully inhibited): 4.57 µM
Kd ([5]; Log KD α1B, ^3H‐prazosin whole cell binding, given as log KD (negative), mean ± SEM): 6.03 µM
Intracellular calcium release % Ionomycin at 100 µM [6, 13]: 2.3 ± 1.1%

Kd ([7]; Log KD α1A, ^3H‐prazosin whole cell binding, CHO‐α1A cells, given as log KD (negative), mean ± SEM): 32.4 µM
Affinity selectivity ratio α1A vs α1B ([7]; higher affinity for α1A than α1B): >3.1 fold
ERK1/2‐phosphorylation Log EC50 ([8]; for bi‐phasic responses the initial stimulatory part): No response
ERK1/2‐phosphorylation % PDBu ([8]; maximal response as % PDBu response, for bi‐phasic responses the initial stimulatory part): No response
ERK1/2‐phosphorylation % PDBu [3]: No response
ERK1/2‐phosphorylation Log EC50 ([3]; CHO‐α1D cells): No response
Log efficacy ratio KD /EC50 ([9]; binding KD and calcium EC50): 1.19
EC50 ([9]; given as log EC50 (negative), read-out: Intracellular calcium release Log EC50 (converted)): 2090 nM
Intracellular calcium release % ionomycin ([9]; maximal response as % of 10 µM ionomycin): 45.9 ± 3.8%
ERK1/2‐phosphorylation % PDBu at 10 µM ([10]; response at 10 μM ligand): 89.0 ± 3.9%
Kd [4, 12]: 18.6 µM
Kd [4, 14]: 18.6 µM
Affinity selectivity ratio α1A vs α1D ([4]; higher affinity for α1D than α1A): 1.7 fold
Affinity selectivity ratio α1B vs α1D ([4]; higher affinity for α1D than α1B): >5.4 fold
IC50 [5]: > 100 µM
Intracellular calcium release % Ionomycin at 100 µM ([11]; response at 100 µM ligand (no EC50 given), % of ionomycin response): 20.0 ± 3.9%
Intracellular calcium release % Ionomycin at 100 µM [6]: 12.0 ± 0.9%
Structure (SMILES): C1COC(NC(C2CC2)C2CC2)=N1 [Rilmenidine]
ERK1/2-phosphorylation % PDBu [2]: No response
ERK1/2-phosphorylation Log EC50 [2]: No response

ERK1/2‐phosphorylation % PDBu at 100 µM ([8]; response at 100 µM ligand (no EC50 given)): 7.1 ± 3.5%
ERK1/2‐phosphorylation % PDBu at 100 µM [3, 13]: 4.0 ± 2.5%
ERK1/2‐phosphorylation % PDBu at 100 µM ([10]; response at 100 μM ligand): 4.3 ± 1.9%
Kd [4, 12]: 135 µM
Kd [4, 14]: 135 µM
IC50 [5]: > 1000 µM
EC50 ([11]; given as log EC50 (negative numbers), read-out: Intracellular calcium release Log EC50 (converted)): 7.24 µM
Intracellular calcium release % ionomycin ([11]; maximal response as % of 10 µM ionomycin response): 58.4 ± 3.0%
Intracellular calcium release Log EC50 ([6]; CHO‐α1D cells, log values given negative): No response
Intracellular calcium release % ionomycin ([6]; CHO‐α1D cells, maximal response as % of 10 µM ionomycin): No response
Structure (SMILES): CC(C)(C)NCC(O)c1ccc(O)c(CO)c1 (centres unmarked) [Salbutamol]
Emax at 100 µM ([2]; Cricetulus griseus, CHO, read-out: ERK1/2-phosphorylation % PDBu at 100μM): 3.5 ± 2%
